Experimental data taken from ChEMBL document CHEMBL5724914, “Linking interpersonal differences in gut microbiota composition and drug biotransformation activity” (2024).

What was measured:
[1] = (§1) The drug is tested on WLS-370 corresponding to human gut metagenome with ENA study accession number: PRJEB37062 and ENA sample accession number: ERS12561793 for biotransformation under anaerobic condition. The drug concentrations were measured over 9 timepoints collected between 0 and 24 hours of incubation by liquid-chromatography-coupled mass spectrometry (LC–MS); settings: 2 µM
[2] = human gut metagenome, 24 h, 2 µM
[3] = human gut metagenome, 24 h, 2 µM; remark: listed apart in the source
[4] = human gut metagenome, 24 h, 2 µM; remark: listed apart in the source
[5] = as §1, with “WLS-027” for “WLS-370”, “ERS12561744” for “ERS12561793”; settings: 2 µM
[6] = human gut metagenome, 24 h, 2 µM; remark: listed apart in the source
[7] = human gut metagenome, 24 h, 2 µM; remark: listed apart in the source
[8] = as §1, with “Z-025” for “WLS-370”, “rabbit” for “human”, “ERS12561824” for “ERS12561793”; settings: 2 µM
[9] = human gut metagenome, 24 h, 2 µM; remark: listed apart in the source
[10] = as §1, with “WLS-038” for “WLS-370”, “ERS12561745” for “ERS12561793”; settings: 2 µM
[11] = human gut metagenome, 24 h, 2 µM; remark: listed apart in the source
[12] = as §1, with “Z-006” for “WLS-370”, “mouse” for “human”, “ERS12561806” for “ERS12561793”; settings: 2 µM
[13] = human gut metagenome, 24 h, 2 µM; remark: listed apart in the source
[14] = as §1, with “WLS-006” for “WLS-370”, “ERS12561741” for “ERS12561793”; settings: 2 µM
[15] = as §1, with “Z-026” for “WLS-370”, “to” for “to human gut”, “ERS12561825” for “ERS12561793”; settings: 2 µM
[16] = as §1, with “Z-021” for “WLS-370”, “to” for “to human gut”, “ERS12561820” for “ERS12561793”; settings: 2 µM
[17] = as §1, with “Z-001” for “WLS-370”, “mouse” for “human”, “ERS12561801” for “ERS12561793”; settings: 2 µM
[18] = human gut metagenome, 24 h, 2 µM; remark: listed apart in the source
[19] = as §1, with “WLS-010” for “WLS-370”, “ERS12561743” for “ERS12561793”; settings: 2 µM
[20] = human gut metagenome, 24 h, 2 µM; remark: listed apart in the source
Note: call rule not given here.

Row | SMILES | Bacterial Biotransformation [1] | Bacterial Biotransformation [2] | Bacterial Biotransformation [3] | Bacterial Biotransformation [4] | Bacterial Biotransformation [5] | Bacterial Biotransformation [6] | Bacterial Biotransformation [7] | Bacterial Biotransformation [8] | Bacterial Biotransformation [9] | Bacterial Biotransformation [10] | Bacterial Biotransformation [11] | Bacterial Biotransformation [12] | Bacterial Biotransformation [13] | Bacterial Biotransformation [14] | Bacterial Biotransformation [15] | Bacterial Biotransformation [16] | Bacterial Biotransformation [17] | Bacterial Biotransformation [18] | Bacterial Biotransformation [19] | Bacterial Biotransformation [20]
1 | CN(C)CC(c1ccc(O)cc1)C1(O)CCCCC1.O=C(O)CCC(=O)O (stereo not given) [DESVENLAFAXINE SUCCINATE] | Compound NOT metabolized | Compound NOT metabolized | Compound NOT metabolized | Compound NOT metabolized | Compound NOT metabolized | Compound NOT metabolized | Compound NOT metabolized | Compound NOT metabolized | Compound NOT metabolized | Compound NOT metabolized | Compound NOT metabolized | Compound NOT metabolized | Compound NOT metabolized | Compound NOT metabolized | Compound NOT metabolized | Compound NOT metabolized | Compound NOT metabolized | Compound NOT metabolized | Compound NOT metabolized | Compound NOT metabolized
2 | CN1CCN(C(=O)O[C@H]2c3nccnc3C(=O)N2c2ccc(Cl)cn2)CC1 [ESZOPICLONE] | Compound NOT metabolized | Compound NOT metabolized | Compound NOT metabolized | Compound NOT metabolized | Compound NOT metabolized | Compound NOT metabolized | Compound NOT metabolized | Compound NOT metabolized | Compound NOT metabolized | Compound NOT metabolized | Compound NOT metabolized | Compound NOT metabolized | Compound NOT metabolized | Compound NOT metabolized | Compound NOT metabolized | Compound NOT metabolized | Compound NOT metabolized | Compound NOT metabolized | Compound NOT metabolized | Compound NOT metabolized
3 | CC(C)OC(=O)C(C)(C)Oc1ccc(C(=O)c2ccc(Cl)cc2)cc1 [FENOFIBRATE] | Compound metabolized | Compound metabolized | Compound metabolized | Compound NOT metabolized | Compound metabolized | Compound NOT metabolized | Compound NOT metabolized | Compound metabolized | Compound NOT metabolized | Compound NOT metabolized | Compound NOT metabolized | Compound metabolized | Compound metabolized | Compound metabolized | Compound metabolized | Compound NOT metabolized | Compound NOT metabolized | Compound metabolized | Compound NOT metabolized | Compound NOT metabolized
4 | O=C1NCC2(CCN(CCc3ccccc3)CC2)O1 [FENSPIRIDE] | Compound NOT metabolized | Compound NOT metabolized | Compound NOT metabolized | Compound NOT metabolized | Compound NOT metabolized | Compound NOT metabolized | Compound NOT metabolized | Compound NOT metabolized | Compound NOT metabolized | Compound NOT metabolized | Compound NOT metabolized | Compound NOT metabolized | Compound metabolized | Compound NOT metabolized | Compound NOT metabolized | Compound NOT metabolized | Compound metabolized | Compound NOT metabolized | Compound NOT metabolized | Compound NOT metabolized
